System: mdx mouse EDL muscle
Experiment: Phosphoprotein array analysis (Cell Signaling Phospho Antibody Array)
Experimental: mdx mouse EDL muscle was prepared for ex vivo analysis as described (n = 5). Muscles were incubated for 1 hour with DMSO or EDG-5506 (5 μM) and then flash frozen in liquid nitrogen. Tissue preparation and analysis were performed as recommended by the manufacturer (Cell Signaling Phospho Antibody Array, Full Moon Biosystems).

O=c1ccc(-c2cnc(OCC(F)(F)F)nc2)nn1Cc1cncc(F)c1 [EDG-5506]
Data Normalized to Median Signal: CDK1/CDC2 (Phospho-Tyr15) (4000031744 (T)): 0.89 | Data Normalized to Median Signal: CREB (Phospho-Ser133) (4000031744 (T)): 0.81 | Data Normalized to Median Signal: CaMK2-beta/gamma/delta (Phospho-Thr287) (4000031744 (T)): 1.20 | Data Normalized to Median Signal: CaMK2A (Phospho-Thr286) (4000031744 (T)): 0.85 | Data Normalized to Median Signal: Caspase 8 (Phospho-Ser347) (4000031744 (T)): 1.06 | Data Normalized to Median Signal: Caspase 9 (Phospho-Ser196) (4000031744 (T)): 2.98 | Data Normalized to Median Signal: Catenin beta (Phospho-Thr41/Ser45) (4000031744 (T)): 0.90 | Data Normalized to Median Signal: Chk2 (Phospho-Thr68) (4000031744 (T)): 0.66 | Data Normalized to Median Signal: Cyclin D1 (Phospho-Thr286) (4000031744 (T)): 2.47 | Data Normalized to Median Signal: Cyclin E1 (Phospho-Thr77) (4000031744 (T)): 1.57 | Data Normalized to Median Signal: DARPP-32 (Phospho-Thr34) (4000031744 (T)): 0.93 | Data Normalized to Median Signal: EEF2 (Phospho-Thr56) (4000031744 (T)): 1.33 | Data Normalized to Median Signal: FADD (Phospho-Ser194) (4000031744 (T)): 2.10 | Data Normalized to Median Signal: FAK (Phospho-Ser910) (4000031744 (T)): 1.62 | Data Normalized to Median Signal: FGFR1 (Phospho-Tyr654) (4000031744 (T)): 2.43 | Data Normalized to Median Signal: GRK2 (Phospho-Ser29) (4000031744 (T)): 1.51 | Data Normalized to Median Signal: GSK3 alpha/beta (Phospho-Tyr216/279) (4000031744 (T)): 1.02 | Data Normalized to Median Signal: Gab2 (Phospho-Tyr643) (4000031744 (T)): 4.36 | Data Normalized to Median Signal: HDAC1 (Phospho-Ser421) (4000031744 (T)): 1.53 | Data Normalized to Median Signal: HDAC2 (Phospho-Ser394) (4000031744 (T)): 1.45 | Data Normalized to Median Signal: HSP90B (Phospho-Ser226) (4000031744 (T)): 2.09 | Data Normalized to Median Signal: IKK-beta (Phospho-Tyr188) (4000031744 (T)): 1.11 | Data Normalized to Median Signal: IKK-beta (Phospho-Tyr199) (4000031744 (T)): 1.14 | Data Normalized to Median Signal: IKK-gamma (Phospho-Ser31) (4000031744 (T)): 0.98 | Data Normalized to Median Signal: IL-4R/CD124 (Phospho-Tyr497) (4000031744 (T)): 1.35 | Data Normalized to Median Signal: IL-10R-alpha (Phospho-Tyr496) (4000031744 (T)): 1.26 | Data Normalized to Median Signal: IkB-alpha (Phospho-Ser32/36) (4000031744 (T)): 8.76 | Data Normalized to Median Signal: Integrin beta-3 (Phospho-Tyr773) (4000031744 (T)): 0.89 | Data Normalized to Median Signal: JunB (Phospho-Ser259) (4000031744 (T)): 0.90 | Data Normalized to Median Signal: LYN (Phospho-Tyr507) (4000031744 (T)): 1.16 | Data Normalized to Median Signal: Lamin A/C (Phospho-Ser392) (4000031744 (T)): 0.81 | Data Normalized to Median Signal: MEK1 (Phospho-Ser217) (4000031744 (T)): 0.66 | Data Normalized to Median Signal: NFkB-p65 (Phospho-Ser311) (4000031744 (T)): 0.96 | Data Normalized to Median Signal: NFkB-p65 (Phospho-Ser529) (4000031744 (T)): 54.58 | Data Normalized to Median Signal: NFkB-p100/p52 (Phospho-Ser865) (4000031744 (T)): 1.13 | Data Normalized to Median Signal: P38 MAPK (Phospho-Thr180/Tyr182) (4000031744 (T)): 1.99 | Data Normalized to Median Signal: P70S6K (Phospho-Ser424) (4000031744 (T)): 0.97 | Data Normalized to Median Signal: P90RSK (Phospho-Thr359/Ser363) (4000031744 (T)): 1.39 | Data Normalized to Median Signal: PDK1 (Phospho-Ser241) (4000031744 (T)): 1.70 | Data Normalized to Median Signal: PLCG1 (Phospho-Tyr783) (4000031744 (T)): 7.48 | Data Normalized to Median Signal: PLK1 (Phospho-Thr210) (4000031744 (T)): 0.61 | Data Normalized to Median Signal: PP2A-alpha (Phospho-Tyr307) (4000031744 (T)): 0.97 | Data Normalized to Median Signal: PPAR-gamma (Phospho-Ser112) (4000031744 (T)): 1.23 | Data Normalized to Median Signal: Rb (Phospho-Ser807) (4000031744 (T)): 0.99 | Data Normalized to Median Signal: RelB (Phospho-Ser552) (4000031744 (T)): 2.68 | Data Normalized to Median Signal: SAPK/JNK (Phospho-Tyr185) (4000031744 (T)): 0.87 | Data Normalized to Median Signal: SHP-2 (Phospho-Tyr542) (4000031744 (T)): 1.06 | Data Normalized to Median Signal: STAT3 (Phospho-Tyr705) (4000031744 (T)): 0.90 | Data Normalized to Median Signal: STAT4 (Phospho-Tyr693) (4000031744 (T)): 43.74 | Data Normalized to Median Signal: STAT6 (Phospho-Thr645) (4000031744 (T)): 0.94 | Data Normalized to Median Signal: SYK (Phospho-Tyr348) (4000031744 (T)): 1.04 | Data Normalized to Median Signal: Smad1 (Phospho-Ser187) (4000031744 (T)): 1.71 | Data Normalized to Median Signal: Smad2 (Phospho-Ser467) (4000031744 (T)): 1.05 | Data Normalized to Median Signal: Smad2/3 (Phospho-Thr8) (4000031744 (T)): 2.11 | Data Normalized to Median Signal: Smad3 (Phospho-Ser213) (4000031744 (T)): 1.56 | Data Normalized to Median Signal: Src (Phospho-Tyr418) (4000031744 (T)): 9.05 | Data Normalized to Median Signal: Tau (Phospho-Ser396) (4000031744 (T)): 0.88 | Data Normalized to Median Signal: VEGFR2 (Phospho-Tyr1175) (4000031744 (T)): 0.88 | Data Normalized to Median Signal: Zap-70 (Phospho-Tyr319) (4000031744 (T)): 1.25 | Data Normalized to Median Signal: c-Jun (Phospho-Ser73) (4000031744 (T)): 0.98 | Data Normalized to Median Signal: p44/42 MAP Kinase (Phospho-Tyr204) (4000031744 (T)): 0.86 | Data Normalized to Median Signal: p53 (Phospho-Ser15) (4000031744 (T)): 1.59 | Fold Change between Samples T/C: 4E-BP1 (Phospho-Thr45) (T vs C): 0.89 | Fold Change between Samples T/C: ACC1 (Phospho-Ser80) (T vs C): 1.12 | Fold Change between Samples T/C: AMPKbeta1 (Phospho-Ser182) (T vs C): 0.97 | Fold Change between Samples T/C: B-RAF (Phospho-Ser446) (T vs C): 1.05 | Fold Change between Samples T/C: BAX (Phospho-Thr167) (T vs C): 0.95 | Fold Change between Samples T/C: BCL-XL (Phospho-Ser62) (T vs C): 1.23 | Fold Change between Samples T/C: BLNK (Phospho-Tyr96) (T vs C): 0.62 | Fold Change between Samples T/C: CBL (Phospho-Tyr700) (T vs C): 0.88 | Fold Change between Samples T/C: CDK1/CDC2 (Phospho-Tyr15) (T vs C): 0.83 | Fold Change between Samples T/C: CREB (Phospho-Ser133) (T vs C): 0.74 | Fold Change between Samples T/C: CaMK2-beta/gamma/delta (Phospho-Thr287) (T vs C): 0.92 | Fold Change between Samples T/C: CaMK2A (Phospho-Thr286) (T vs C): 0.86 | Fold Change between Samples T/C: Caspase 8 (Phospho-Ser347) (T vs C): 1.08 | Fold Change between Samples T/C: Caspase 9 (Phospho-Ser196) (T vs C): 0.94 | Fold Change between Samples T/C: Catenin beta (Phospho-Thr41/Ser45) (T vs C): 0.83 | Fold Change between Samples T/C: Chk2 (Phospho-Thr68) (T vs C): 0.51 | Fold Change between Samples T/C: Cyclin D1 (Phospho-Thr286) (T vs C): 1.18 | Fold Change between Samples T/C: Cyclin E1 (Phospho-Thr77) (T vs C): 1.02 | Fold Change between Samples T/C: DARPP-32 (Phospho-Thr34) (T vs C): 0.91 | Fold Change between Samples T/C: EEF2 (Phospho-Thr56) (T vs C): 1.12 | Fold Change between Samples T/C: FADD (Phospho-Ser194) (T vs C): 1.53 | Fold Change between Samples T/C: FAK (Phospho-Ser910) (T vs C): 1.09 | Fold Change between Samples T/C: FGFR1 (Phospho-Tyr654) (T vs C): 1.35 | Fold Change between Samples T/C: GRK2 (Phospho-Ser29) (T vs C): 1.26 | Fold Change between Samples T/C: GSK3 alpha/beta (Phospho-Tyr216/279) (T vs C): 0.97 | Fold Change between Samples T/C: Gab2 (Phospho-Tyr643) (T vs C): 1.59 | Fold Change between Samples T/C: HDAC1 (Phospho-Ser421) (T vs C): 1.25 | Fold Change between Samples T/C: HDAC2 (Phospho-Ser394) (T vs C): 0.90 | Fold Change between Samples T/C: HSP90B (Phospho-Ser226) (T vs C): 1.00 | Fold Change between Samples T/C: IKK-beta (Phospho-Tyr188) (T vs C): 1.01 | Fold Change between Samples T/C: IKK-beta (Phospho-Tyr199) (T vs C): 0.84 | Fold Change between Samples T/C: IKK-gamma (Phospho-Ser31) (T vs C): 0.98 | Fold Change between Samples T/C: IL-4R/CD124 (Phospho-Tyr497) (T vs C): 0.93 | Fold Change between Samples T/C: IL-10R-alpha (Phospho-Tyr496) (T vs C): 0.85 | Fold Change between Samples T/C: IkB-alpha (Phospho-Ser32/36) (T vs C): 1.11 | Fold Change between Samples T/C: Integrin beta-3 (Phospho-Tyr773) (T vs C): 0.93 | Fold Change between Samples T/C: JunB (Phospho-Ser259) (T vs C): 0.79 | Fold Change between Samples T/C: LYN (Phospho-Tyr507) (T vs C): 1.06 | Fold Change between Samples T/C: Lamin A/C (Phospho-Ser392) (T vs C): 0.80 | Fold Change between Samples T/C: MEK1 (Phospho-Ser217) (T vs C): 0.62 | Fold Change between Samples T/C: NFkB-p65 (Phospho-Ser311) (T vs C): 1.00 | Fold Change between Samples T/C: NFkB-p65 (Phospho-Ser529) (T vs C): 0.82 | Fold Change between Samples T/C: NFkB-p100/p52 (Phospho-Ser865) (T vs C): 0.88 | Fold Change between Samples T/C: P38 MAPK (Phospho-Thr180/Tyr182) (T vs C): 0.35 | Fold Change between Samples T/C: P70S6K (Phospho-Ser424) (T vs C): 1.00 | Fold Change between Samples T/C: P90RSK (Phospho-Thr359/Ser363) (T vs C): 0.95 | Fold Change between Samples T/C: PDK1 (Phospho-Ser241) (T vs C): 1.14 | Fold Change between Samples T/C: PLCG1 (Phospho-Tyr783) (T vs C): 2.25 | Fold Change between Samples T/C: PLK1 (Phospho-Thr210) (T vs C): 0.60 | Fold Change between Samples T/C: PP2A-alpha (Phospho-Tyr307) (T vs C): 0.93 | Fold Change between Samples T/C: PPAR-gamma (Phospho-Ser112) (T vs C): 1.26 | Fold Change between Samples T/C: Rb (Phospho-Ser807) (T vs C): 0.91 | Fold Change between Samples T/C: RelB (Phospho-Ser552) (T vs C): 0.76 | Fold Change between Samples T/C: SAPK/JNK (Phospho-Tyr185) (T vs C): 0.84 | Fold Change between Samples T/C: SHP-2 (Phospho-Tyr542) (T vs C): 0.91 | Fold Change between Samples T/C: STAT3 (Phospho-Tyr705) (T vs C): 0.92 | Fold Change between Samples T/C: STAT4 (Phospho-Tyr693) (T vs C): 1.04 | Fold Change between Samples T/C: STAT6 (Phospho-Thr645) (T vs C): 0.89 | Fold Change between Samples T/C: SYK (Phospho-Tyr348) (T vs C): 0.91 | Fold Change between Samples T/C: Smad1 (Phospho-Ser187) (T vs C): 1.60 | Fold Change between Samples T/C: Smad2 (Phospho-Ser467) (T vs C): 1.00 | Fold Change between Samples T/C: Smad2/3 (Phospho-Thr8) (T vs C): 1.25 | Fold Change between Samples T/C: Smad3 (Phospho-Ser213) (T vs C): 1.26 | Fold Change between Samples T/C: Src (Phospho-Tyr418) (T vs C): 0.77
